Measurements from patent publication US20170020909A1, “METHODS OF TREATING GLAUCOMA USING AMP-ACTIVATED PROTEIN KINASE (AMPK) ACTIVATORS” (Massachusetts Eye and Ear Infirmary, priority 2014, published 2017).

Tests used:
collagen I = experiment: Immunoblot of collagen I in conditioned media of human TM cells; format: cell-based; details: 24 hours
Procedure: (§1) FIGS. 5A-E. AICAR suppresses ECM proteins in primary human TM cells under basal and TGF-β2 stimulatory conditions. (A) Representative immunoblots of ECM proteins from conditioned media (CM) of human TM cells treated for 24 hours with PBS vehicle or 0.5 mM AICAR and (B) integrated band intensities calculated from those immunoblots. (C) Representative immunoblots of ECM proteins from CM of human TM cells under stimulation with 2.5 ng/mL TGF-β2. Cells were pre-incubated for 1 hour with PBS or 0.5 mM AICAR prior to full 24-hour treatment. (D) Mean integrated band intensities. Data in panels B and D are expressed as mean±SEM (*p<0.05 vs. PBS vehicle by student t-test; n=5-7). (E) Representative 10% acrylamide gels stained with Coomassie Brilliant Blue as a loading control. […]
(§2) At the conclusion of each experiment for matricellular and ECM protein detection, conditioned media (CM) from TM cell cultures was harvested and centrifuged at 5000 rpm for 10 minutes at 4° C. The supernatant was then concentrated (Amicon Ultra-4 Filter Unit, 10 kDa; Millipore, Milford, Mass.), and protein content quantified using the DC Protein Assay kit adhering to manufacturer's protocols (Bio-Rad, Hercules, Calif.). […] Samples were then centrifuged at 14,000 rpm for 15 minutes at 4° C. and protein content quantified. […]

laminin = experiment: Immunoblot of laminin in conditioned media of human TM cells; format: cell-based; details: 24 hours
Procedure: as §1, §2

[1] = 0.5 mM AICAR vs PBS vehicle, basal
[2] = 0.5 mM AICAR, under TGF-β2 stimulation with 2.5 ng/mL

## NC(=O)c1ncn([C@@H]2O[C@H](CO)[C@@H](O)[C@H]2O)c1N [AICAR, 5-Aminoimidazole-4-carboxamide riboside]
Collagen I; [1]
  decrease in collagen I (mean integrated band intensity): 70%
Collagen I; [2]
  decrease in collagen I level: 26%
laminin; [1]
  decrease in laminin (mean integrated band intensity): 64%
laminin; [2]
  decrease in laminin level: 33%
